Data: US8163909B2, “Substituted hydroxyethyl amine compounds as beta-secretase modulators and methods of use” (Amgen Inc., priority 2007, dated 2012)
Read-outs that look alike come from different tables or passages of the source.

Experiments:
[1] = Microsomal stability assay, rat liver microsomes;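 note: rat liver microsomes (0.25 mg/mL) with about 1 µM compound plus 1 mM NADPH, pH 7.4, 37 °C for 30 min, parent left measured by LC-MS/MS against 0 min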
CYP3A4 (CYP3A) = CYP3A4 (CYP3A) (Homo sapiens, UniProt P08684); experiment: in vitro; details: microsomes, pH 7.4;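 note: inhibition of CYP3A-mediated 1-hydroxymidazolam formation after 10 min incubation with NADPH, quantified by HPLC MS relative to metabolite produced without test compound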
CYP2D6 = CYP2D6 (Homo sapiens, UniProt P10635); experiment: CYP2D6 inhibition assay (bufuralol, pooled human liver microsomes)
[2] = test system: Aβ40 in conditioned medium of cells stably expressing Amyloid Precursor Protein (APP); experiment: In vitro BACE cell-based assay (Aβ40 in conditioned medium, sandwich ELISA); details: Homo sapiens;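 note: compounds added as a dilution series, secreted peptide quantified by europium time-resolved fluorescence readout, potency fitted from percent of control versus compound concentration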
[3] = target: Beta Secretase enzyme (BACE) (Homo sapiens, UniProt P56817); experiment: In vitro enzymatic BACE FRET (fluorescence resonance energy transfer) assay; format: biochemical;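 note: fluorescence read after 1 h with 50 nM quenched peptide substrate spanning the BACE cleavage site, in pH 4.2 acetate buffer containing 10% DMSO and nonionic detergent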
[4] = Microsomal stability assay, human liver microsomes;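 note: pooled human liver microsomes at 0.25 mg/mL with 1 µM compound and NADPH at 37 °C, pH 7.4, for 30 min, unchanged parent quantified by LC-MS/MS against the 0 min sample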
[5] = 2D6 IC50 (uM), CYP enzyme inhibition
[6] = HEK293, HEK cells, read-out: HEK cell assay
[7] = BACE enzyme assay, read-out: BACE1 FRET assay
[8] = HEK293, HEK cell-based assay, IC50's in uM, read-out: HEK cell assay
[9] = BACE enzyme assay, IC50's in uM, read-out: BACE1 FRET assay
[10] = HEK293, HEK cells, read-out: HEK cell assay (IC50)
[11] = read-out: BACE1 FRET assay (IC50)
[12] = 2D6 IC50, CYP enzyme inhibition
[13] = HEK293, Table 2, HEK cells, read-out: HEK cell assay
[14] = Table 2, read-out: BACE1 FRET assay

CYP2D6, sequence (P10635 whole entry): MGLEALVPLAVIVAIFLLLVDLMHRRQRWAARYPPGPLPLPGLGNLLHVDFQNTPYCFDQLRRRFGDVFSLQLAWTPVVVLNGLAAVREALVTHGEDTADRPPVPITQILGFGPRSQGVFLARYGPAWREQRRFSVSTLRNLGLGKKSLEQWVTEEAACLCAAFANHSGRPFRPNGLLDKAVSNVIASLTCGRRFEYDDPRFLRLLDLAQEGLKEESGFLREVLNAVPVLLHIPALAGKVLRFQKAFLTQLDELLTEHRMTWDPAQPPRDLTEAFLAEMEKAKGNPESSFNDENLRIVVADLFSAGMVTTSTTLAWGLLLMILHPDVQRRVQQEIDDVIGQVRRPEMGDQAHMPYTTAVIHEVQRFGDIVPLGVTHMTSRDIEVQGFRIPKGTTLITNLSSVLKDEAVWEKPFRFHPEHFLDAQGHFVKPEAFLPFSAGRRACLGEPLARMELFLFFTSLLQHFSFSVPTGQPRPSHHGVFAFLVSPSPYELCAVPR
CYP3A4 (CYP3A), sequence (P08684 2-503): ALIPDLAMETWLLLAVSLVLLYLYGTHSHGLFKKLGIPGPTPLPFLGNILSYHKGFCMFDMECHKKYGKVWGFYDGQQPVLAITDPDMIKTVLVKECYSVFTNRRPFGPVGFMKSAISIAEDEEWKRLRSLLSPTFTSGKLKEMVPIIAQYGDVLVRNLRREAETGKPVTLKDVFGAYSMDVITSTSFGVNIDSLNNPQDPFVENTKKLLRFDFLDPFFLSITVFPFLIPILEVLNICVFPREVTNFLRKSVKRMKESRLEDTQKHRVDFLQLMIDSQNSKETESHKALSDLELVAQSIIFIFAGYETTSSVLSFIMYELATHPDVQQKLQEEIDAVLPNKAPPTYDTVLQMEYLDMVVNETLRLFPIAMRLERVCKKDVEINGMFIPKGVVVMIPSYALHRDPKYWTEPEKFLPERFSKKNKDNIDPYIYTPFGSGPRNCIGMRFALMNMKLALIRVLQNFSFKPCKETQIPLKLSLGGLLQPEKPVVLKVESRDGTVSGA
Beta Secretase enzyme (BACE), sequence (P56817 46-501): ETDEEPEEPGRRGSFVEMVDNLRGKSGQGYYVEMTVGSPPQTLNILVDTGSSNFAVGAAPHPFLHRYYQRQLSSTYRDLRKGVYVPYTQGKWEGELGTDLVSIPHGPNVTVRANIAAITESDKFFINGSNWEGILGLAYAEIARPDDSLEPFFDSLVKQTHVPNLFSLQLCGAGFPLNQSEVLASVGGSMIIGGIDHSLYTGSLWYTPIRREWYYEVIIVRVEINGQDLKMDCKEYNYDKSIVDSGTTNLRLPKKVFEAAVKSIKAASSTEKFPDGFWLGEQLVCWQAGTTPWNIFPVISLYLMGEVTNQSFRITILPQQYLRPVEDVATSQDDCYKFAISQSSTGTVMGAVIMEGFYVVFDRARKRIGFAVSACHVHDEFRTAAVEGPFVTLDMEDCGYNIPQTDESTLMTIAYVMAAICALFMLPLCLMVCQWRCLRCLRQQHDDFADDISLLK

Row | Structure (SMILES) | RLM ([1]; rat liver microsomal data) | IC50 (CYP3A4 (CYP3A)) | IC50 (CYP2D6; [5]) | HLM ([4]; human liver microsomal data) | IC50 [3, 9] | RLM ([1]; rat liver microsomes) | HLM ([4]; human liver microsomes) | further results
1 | COCC(=O)N[C@@H](Cc1cc(F)cc(F)c1)[C@H](O)CN[C@H]1CC2(CCC2)Oc2c1cc(CC(C)(C)C)nc2-c1cnc[nH]1 [compound 508] | 43 µL/min/mg | 0.1 µM | 1.2 µM | 17 µL/min/mg | – | – | – | IC50 [2, 6]: 0.005 µM; IC50 [3, 7]: 0.024 µM
2 | C#Cc1cccc(C[C@H](NC(=O)[C@@H](C)OC)[C@H](O)CN[C@H]2CC3(CCC3)Oc3ncc(CC(C)C)cc32)c1 [Example 777, (2R)-N-((1S,2R)-1-(3-ethynylbenzyl)-2-hydroxy-3-(((4′S)-6′-(2-methylpropyl)-3′,4′-dihydrospiro[cyclobutane-1,2′-pyrano[2,3-b]pyridin]-4′-yl)amino)propyl)-2-methoxypropanamide] | 38 µL/min/mg | 0.1 µM | 2.1 µM | 29 µL/min/mg | 0.006 µM | – | – | IC50 [2, 8]: 0.013 µM
3 | CCO[C@H](C)C(=O)N[C@@H](Cc1ccc2c(c1)OCO2)[C@H](O)CN[C@H]1CC2(CCC2)Oc2ncc(CC(C)C)cc21 [compound 808] | 179 µL/min/mg | 0.1 µM | 2.3 µM | 49 µL/min/mg | 0.138 µM | – | – | IC50 [2, 8]: 0.414 µM
4 | CO[C@H](C)C(=O)N[C@@H](Cc1ccccc1)[C@H](O)CN[C@H]1CC2(CCC2)Oc2c(-c3cncn3C)cc(CC(C)C)cc21 [compound 634] | – | 0.1 µM | – | – | – | 340 µL/min/mg | 50 µL/min/mg | IC50 (CYP2D6; 2D6 IC50, CYP2D6 inhibition): 4.5 µM; IC50 [2, 10]: 0.014 µM; IC50 [3, 11]: 0.126 µM
5 | COCC(=O)N[C@@H](Cc1ccc2c(c1)OCO2)[C@H](O)CN[C@H]1CC2(CCC2)Oc2nc(F)c(CC(C)(C)C)cc21 [compound 485] | 106 µL/min/mg | 0.1 µM | – | 43 µL/min/mg | – | – | – | IC50 (CYP2D6; [12]): 1.7 µM; IC50 [2, 13]: 0.378 µM; IC50 [3, 14]: 0.12 µM
6 | CO[C@H](C)C(=O)N[C@@H](Cc1ccc2c(c1)OCO2)[C@H](O)CN[C@H]1CC2(CCC2)Oc2ncc([C@H]3CC3(C)C)cc21 [compound 580] | – | 0.1 µM | – | – | – | 186 µL/min/mg | 42 µL/min/mg | IC50 (CYP2D6; 2D6 IC50, CYP2D6 inhibition): 4.4 µM; IC50 [2, 10]: 0.776 µM; IC50 [3, 11]: 0.357 µM
7 | CC(C)(C)Cc1cnc2c(c1)[C@@H](NC[C@@H](O)[C@H](Cc1ccc3c(c1)OCO3)NC(=O)[C@H]1CCC(=O)C1)CC1(CCC1)O2 [compound 450] | 170 µL/min/mg | 0.4 µM | – | 76 µL/min/mg | – | – | – | IC50 (CYP2D6; [12]): 8.6 µM; IC50 [2, 13]: 0.183 µM; IC50 [3, 14]: 0.15 µM
8 | CC(C)(C)Cc1cnc2c(c1)[C@@H](NC[C@@H](O)[C@H](Cc1ccc(F)cc1)NC(=O)[C@H]1CCO1)CC1(CCC1)O2 [Example 440, (2R)—N-((1S,2R)-3-(((4′S)-6′-(2,2-dimethylpropyl)-3′,4′-dihydrospiro[cyclobutane-1,2′-pyrano[2,3-b]pyridin]-4′-yl)amino)-1-((4-fluorophenyl)methyl)-2-hydroxypropyl)-2-oxetanecarboxamide] | 242 µL/min/mg | 0.7 µM | 8.2 µM | 209 µL/min/mg | – | – | – | IC50 [2, 6]: 0.035 µM; IC50 [3, 7]: 0.016 µM
9 | CC(=O)N[C@@H](Cc1ccc(-c2cncs2)cc1)[C@H](O)CN[C@H]1CC2(CCC2)Oc2ncc(CC(C)(C)C)cc21 [compound 694] | – | 0.2 µM | – | – | – | 66 µL/min/mg | 82 µL/min/mg | IC50 (CYP2D6; 2D6 IC50 (uM), CYP2D6 inhibition): 0.3 µM; IC50 ([2]; HEK293, HEK cell-based assay IC50, read-out: HEK cell assay): 0.071 µM; IC50 ([3]; BACE enzyme assay IC50, read-out: BACE1 FRET assay): 0.074 µM
10 | CCOCC(=O)N[C@@H](Cc1cc(F)cc(-c2nccs2)c1)[C@H](O)CN[C@H]1CC2(CCC2)Oc2ncc(CC(C)(C)C)cc21 [compound 862, N-((1S,2R)-3-(((4′S)-6′-(2,2-dimethylpropyl)-3′,4′-dihydrospiro[cyclobutane-1,2′-pyrano[2,3-b]pyridin]-4′-yl)amino)-1-(3-fluoro-5-(1,3-thiazol-2-yl)benzyl)-2-hydroxypropyl)-2-ethoxyacetamide] | 64 µL/min/mg | 0.3 µM | – | 43 µL/min/mg | 0.004 µM | – | – | IC50 (CYP2D6; [12]): 0.65 µM; IC50 ([2]; HEK293, cell-based assay, HEK cells, IC50's in uM, read-out: HEK cell assay): 0.009 µM
11 | CC(=O)N[C@@H](Cc1cccc(-c2ccncc2)c1)[C@H](O)CN[C@H]1CC2(CCC2)Oc2ncc(CC(C)(C)C)cc21 [compound 616, N-((1S,2R)-3-(((4′S)-6′-(2,2-dimethylpropyl)-3′,4′-dihydrospiro[cyclobutane-1,2′-pyrano[2,3-b]pyridin]-4′-yl)amino)-2-hydroxy-1-(3-(4-pyridinyl)benzyl)propyl)acetamide] | – | 0.16 µM | – | – | – | 96 µL/min/mg | 228 µL/min/mg | IC50 (CYP2D6; 2D6 IC50, CYP2D6 inhibition): 0.3 µM; IC50 [2, 10]: 0.01 µM; IC50 [3, 11]: 0.017 µM
12 | CO[C@H](C)C(=O)N[C@@H](Cc1cccc(Br)c1)[C@H](O)CN[C@H]1CC2(CCC2)Oc2ncc(CC(C)C)cc21 [compound 801] | 644 µL/min/mg | 0.3 µM | 3.8 µM | 399 µL/min/mg | 0.016 µM | – | – | IC50 [2, 8]: 0.118 µM
